In patent US20060014734A1, “Immediate release pharmaceutical formulation” (priority 2002, published 2006):
One block for each molecule: values may come before it.

Experiments:
[1] = Solubility of esylate salt: final concentration of the solution after filtration; type: physicochemical
Procedure: A solution was prepared by dissolving excess of Compound A as esylate salt in 3 mL water followed by gently stirring over night. A final concentration of the solution after filtration was monitored to 14 mg/ml at a pH of 2.7.
A solution was prepared by dissolving 112 mg of Compound A as esylate salt in 3 mL sodium phosphate buffer followed by gently stirring over night. A final concentration of the solution after filtration was monitored to 33 mg/ml at a pH of 2.7.
A solution was prepared by dissolving 20 mg of Compound A as esylate salt in 3 mL sodium phosphate buffer followed by gently stirring over night. A final concentration of the solution after filtration was monitored to 1.6 mg/ml at a pH of 6.5.

pH of the formulation = type: physicochemical
Procedure: A formulation was prepared by dissolving Compound A in acidified PEG 400/ethanol/water 20/10/70 (w/w) % that was followed by gently stirring. The pH of this solution was 3.6. The solubility of Compound A is at least 250 times higher in this vehicle compared to water alone.
A formulation was prepared by dissolving Compound E in 9 mg/ml NaCl by gently stirring. The pH obtained in this formulation is 8-9.
A formulation was prepared by dissolving Compound F in 9 mg/ml NaCl by gently stirring. The pH obtained in this formulation is 3-4. Formulations of F in this vehicle are stable for at least 2 weeks at room temperature and below.

[2] = Solubility in vehicle compared to water alone; type: physicochemical
[3] = Storage stability of liquid formulations; type: physicochemical
Procedure: The pH of this solution was set to 3.8 by addition of HCl. The solubility of Compound A is at least 1000 times higher in this vehicle compared to water alone. Formulations of Compound A in this vehicle are stable for at least 3 months at <−15° C.

[4] = Nanoparticle preparation: particle size and its stability; type: physicochemical; conditions: for nanoparticle size: about 100 mM ethanol stock with 25% (w/w) Miglyol, diluted 1/10 in 0.2% PVP and 0.25 mM SDS in water, ultrasonication; for particle sizes after 6 hours at room temperature: nanoparticles after 1/10 dilution in 0.2% PVP and 0.25 mM SDS in water
Procedure: In order to prepare nanoparticles a stock solution of Compound A of about 100 mM in ethanol was used. Included was also 25% (w/w) Miglyol, calculated on the amount of the substance. The solutions were diluted 1/10 with the stabilizer solution, consisting of 0.2% (w/w) PVP and 0.25 mM SDS in water. The mixing, which is considered as a critical parameter during the nanoparticle preparation, was rapid and instant. The drug solution was rapidly injected into the stabilizer solution during ultrasonication. After the 1/10 dilution in the aqeous solution, nanoparticles of about 150 nm were achieved. After 6 hours at room temperature, the particle sizes were unchanged.
To prepare nanoparticles a stock solution of Compound B of about 100 mM in ethanol was used. Included was also 25% (w/w) Miglyol, calculated on the amount of the substance. The solutions were diluted 1/10 with a stabilizer solution consisting of 0.2% (w/w) PVP and 0.25 mM SDS in water. The critical mixing stage was rapid and instant:—The drug solution was rapidly injected into the stabilizer solution during ultrasonication. After 1/10 dilution in the aqeous solution, nanoparticles of about 110 nm were obtained. After 6 hours at room temperature, the particle sizes were unchanged.

[5] = Plasma concentration 1 hour after oral or subcutaneous administration of solution to rats
Procedure: A formulation was prepared by dissolving Compound C in saline/ethanol/solutol 90/5/5 (w/w) % followed by gently stirring.

solubility thermodynamic ([1]; pH 2.7, aqueous buffer, thermodynamic from solid, 112 mg in 3 mL sodium phosphate buffer pH 3.1 I = 0.1, stirred over night, at a pH of 2.7): 33 mg/mL
solubility thermodynamic ([1]; pH 2.7, thermodynamic from solid, excess salt in 3 mL water, stirred over night, at a pH of 2.7): 14 mg/mL
solubility thermodynamic ([1]; pH 6.5, aqueous buffer, thermodynamic from solid, 20 mg in 3 mL sodium phosphate buffer pH 6.9 I = 0.1, stirred over night, at a pH of 6.5): 1.6 mg/mL
SMILES: CCS(=O)(=O)O.CO/N=C(\N)c1ccc(CNC(=O)C2CCN2C(=O)C(O)c2cc(Cl)cc(OC(F)F)c2)cc1 (centres unmarked) [Compound A as esylate salt]

pH of this solution (pH of the formulation; Example 6: 51 μmol/mL in PEG 400/ethanol/water 20/10/70, water with 50 μmol/mL tartaric acid): 3.6
solubility in this vehicle compared to water alone ([2]; Example 4: PEG 400/ethanol/water 50/5/45 (w/w) %): at least 1000 times
solubility in this vehicle compared to water alone ([2]; Example 5: PEG 400/ethanol/water 20/10/70 (w/w) %): at least 100 times
solubility in this vehicle compared to water alone ([2]; Example 6: acidified PEG 400/ethanol/water 20/10/70, water with 50 μmol/mL tartaric acid, pH 3.6): at least 250 times
solubility in this vehicle compared to water alone ([2]; Example 7: PEG 400/ethanol/water 30/5/65 (w/w) %): at least 200 times
solubility in this vehicle compared to water alone ([2]; Example 8: acidified PEG 400/ethanol/water 30/5/65, tartaric acid, HCl to pH 3.6): at least 400 times
solubility in this vehicle compared to water alone ([2]; Example 9: PEG 400/ethanol/water 40/5/55 (w/w) %): at least 600 times
solubility in this vehicle compared to water alone ([2]; Example 10: acidified PEG 400/ethanol/water 40/5/55, tartaric acid, HCl to pH 3.8): at least 1000 times
solubility in this vehicle compared to water alone ([2]; Example 11: Hydroxypropyl-β-cyclodextrin/water 40/60 (w/w) %, pH set to 4.7 by HCl): at least 700 times
solubility in this vehicle compared to water alone ([2]; Example 12: Hydroxypropyl-β-cyclodextrin/water 28/72 (w/w) %): at least 400 times
solubility in this vehicle compared to water alone ([2]; Example 13: PEG 400/ethanol/solutol/water 50/5/5/40 (w/w) %): at least 80 times
solubility in this vehicle compared to water alone ([2]; Example 14: PEG 400/water 40/60 (w/w) %): at least 200 times
solubility in this vehicle compared to water alone ([2]; Example 15: PEG 400/water 35/65 (w/w) %, water with 50 μmol/mL tartaric acid): at least 250 times
solubility in this vehicle compared to water alone ([2]; Example 16: PEG 400/water 50/50 (w/w) %): at least 300 times
solubility in this vehicle compared to water alone ([2]; Example 17: PEG 400/water 67/33 (w/w) %): at least 400 times
solubility in this vehicle compared to water alone ([2]; Example 18: PEG 400/ethanol/water 45/1/54 (w/w) %): at least 450 times
solubility in this vehicle compared to water alone ([2]; Example 19: acidified PEG 400/ethanol/water 45/1/54, tartaric acid, HCl to pH 4.2): at least 800 times
solubility in this vehicle compared to water alone ([2]; Example 20: PEG 400/ethanol/water 45/2/53 (w/w) %): at least 500 times
solubility in this vehicle compared to water alone ([2]; Example 21: acidified PEG 400/ethanol/water 45/2/53, tartaric acid, HCl to pH 4.3): at least 800 times
solubility in this vehicle compared to water alone ([2]; Example 22: DMA/water 50/50 (w/w) %): at least 230 times
solubility in this vehicle compared to water alone ([2]; Example 23: DMA/water 25/75 (w/w) %): at least 150 times
solubility in this vehicle compared to water alone ([2]; Example 24: water with double equimolar HCl, pH adjusted to 3.6): at least 20 times
solubility in this vehicle compared to water alone ([2]; Example 25: water, HCl to pH 1, then NaOH to pH 3.0): at least 40 times
solubility in this vehicle compared to water alone ([2]; Example 26: DMA/miglyol (miglyol 0.25 g/g Compound A)): at least 4000 times
solubility in this vehicle compared to water alone ([2]; Example 27: Ethanol/Miglyol (miglyol 0.25 g/g Compound A)): at least 4000 times
solubility in this vehicle compared to water alone ([2]; Example 57: PEG 400/ethanol/water 25/10/65 (w/w) %): at least 100 times
solubility in this vehicle compared to water alone ([2]; Example 58: PEG 400/ethanol/water 50/10/40 (w/w) %): at least 2000 times
solubility in this vehicle compared to water alone ([2]; Example 59: PEG 400/ethanol/water 40/10/50 (w/w) %): at least 1500 times
solubility in this vehicle compared to water alone ([2]; Example 60: ethanol, citric acid and water, pH set to 3.2): at least 100 times
time the formulation is stable ([3]; Example 10: acidified PEG 400/ethanol/water 40/5/55, pH 3.8, at <−15° C.): at least 3 months
time the substance is stable in this formulation ([3]; Example 28: 130 μmol/mL in ethanol): more than 1 week
time the formulation is stable ([3]; Example 57: PEG 400/ethanol/water 25/10/65, in a freezer): at least 2 months
time the formulation is stable ([3]; Example 60: ethanol, citric acid and water, pH 3.2, in a freezer): at least 1 month
time the formulation is stable ([3]; Example 61: citric acid in physiological saline, pH 3.6, in a freezer): at least 3 months
time the formulation is stable ([3]; Example 62: PEG 400/ethanol/water 40/5/55 containing citric acid, pH 3.6, in a freezer): at least 1 month
time the formulation is stable ([3]; Example 67: citric acid in physiological saline, pH 3.6, in a freezer): at least 3 months
nanoparticle size [4]: about 150 nm
particle sizes after 6 hours at room temperature [4]: unchanged
SMILES: CO/N=C(\N)c1ccc(CNC(=O)[C@@H]2CCN2C(=O)[C@H](O)c2cc(Cl)cc(OC(F)F)c2)cc1 [Compound A, Ph(3-Cl)(5-OCHF2)—(R)CH(OH)C(O)—(S)Aze-Pab(OMe)]

time the formulation is stable ([3]; Example 69: 0.5 mg/mL in PEG 400/ethanol/water 50/5/45, at <−15° C.): at least 1 month
nanoparticle size [4]: about 110 nm
particle sizes after 6 hours at room temperature [4]: unchanged
SMILES: CO/N=C(\N)c1cc(F)c(CNC(=O)[C@@H]2CCN2C(=O)[C@H](O)c2cc(Cl)cc(OC(F)F)c2)c(F)c1 [Compound B, Ph(3-Cl)(5-OCHF2)—(R)CH(OH)C(O)—(S)Aze-Pab(2,6-diF)(OMe)]

time the formulation is stable ([3]; Example 73: 0.5 mg/mL in PEG 400/ethanol/water 50/5/45, at room temperature and below): at least 1 month
time the formulation is stable ([3]; Example 74: Hydroxypropyl-β-cyclodextrin/water 20/80, at <8° C.): at least 2 weeks
SMILES: CO/N=C(\N)c1ccc(CNC(=O)[C@@H]2CCN2C(=O)[C@H](O)c2cc(Cl)cc(OCCF)c2)cc1 [Compound C, Ph(3-Cl)(5-OCH2CH2F)—(R)CH(OH)C(O)—(S)Aze-Pab(OMe)]

plasma concentration after 1 hour ([5]; oral, dosed: Compound A 4 μmol/mL in saline/ethanol/solutol 90/5/5): 560 nM
plasma concentration after 1 hour ([5]; subcutaneous, dosed: Compound A 4 μmol/mL in saline/ethanol/solutol 90/5/5): 240 nM
plasma concentration after 1 hour ([5]; subcutaneous, dosed: Compound D trifluoroacetate salt 4 μmol/mL in saline/ethanol): 550 nM
time the formulation is stable ([3]; Example 64: acidified PEG 400/ethanol/water 40/5/55, pH 3.6, at <−15° C.): at least 2 months
SMILES: N=C(N)c1ccc(CNC(=O)[C@@H]2CCN2C(=O)[C@H](O)c2cc(Cl)cc(OC(F)F)c2)cc1 [Compound D, Ph(3-Cl)(5-OCHF2)—(R)CH(OH)C(O)—(S)Aze-Pab]

pH obtained in this formulation (pH of the formulation; Example 72: dissolved in 9 mg/ml NaCl): 8-9
plasma concentration after 1 hour ([5]; oral, dosed: Compound B 4 μmol/mL in saline/ethanol/solutol 90/5/5): 650 nM
plasma concentration after 1 hour ([5]; subcutaneous, dosed: Compound B 4 μmol/mL in saline/ethanol/solutol 90/5/5): 300 nM
plasma concentration after 1 hour ([5]; subcutaneous, dosed: Compound E acetate salt 4 μmol/mL in saline/ethanol): 750 nM
SMILES: N=C(N)c1cc(F)c(CNC(=O)[C@@H]2CCN2C(=O)[C@H](O)c2cc(Cl)cc(OC(F)F)c2)c(F)c1 [Compound E, Ph(3-Cl)(5-OCHF2)—(R)CH(OH)C(O)—(S)Aze-Pab(2,6-diF)]

pH obtained in this formulation (pH of the formulation; Example 75: dissolved in 9 mg/ml NaCl): 3-4
plasma concentration after 1 hour ([5]; oral, dosed: Compound C 4 μmol/mL in saline/ethanol/solutol 90/5/5): 500 nM
plasma concentration after 1 hour ([5]; subcutaneous, dosed: Compound C 4 μmol/mL in saline/ethanol/solutol 90/5/5): 500 nM
plasma concentration after 1 hour ([5]; subcutaneous, dosed: Compound F trifluoroacetate salt 4 μmol/mL in saline/ethanol): 920 nM
time the formulation is stable ([3]; Example 75: 9 mg/ml NaCl, at room temperature and below): at least 2 weeks
SMILES: N=C(N)c1ccc(CNC(=O)[C@@H]2CCN2C(=O)[C@H](O)c2cc(Cl)cc(OCCF)c2)cc1 [Compound F, Ph(3-Cl)(5-OCH2CH2F)—(R)CH(OH)C(O)—(S)Aze-Pab]
